In patent publication US20050107423A1, “Quinolone antibacterial agents” (priority 2003, published 2005):
≈ marks a conversion by molar mass, not a printed value.

Columns and labels:
Experiment in all cases: Antibacterial assay, microtitration MIC (Test A)
Type in all cases: cell-based
[1] = tested on: E. coli EC-2549; conditions: strain EC-2549; for MIC: Escherichia coli, EC2549, Gram Negative Bacteria, read-out: Minimum Inhibitory Concentrations E. coli EC-2549; for Minimum Inhibitory Concentrations E. coli EC-2549: Gram Negative Bacteria
Protocol: (§1) The compounds of the present invention were tested against an assortment of Gram-negative and Gram-positive organisms using standard microtitration techniques (Cohen et. al., Antimicrob., 1985;28:766; Heifetz, et. al., Antimicrob., 1974;6:124). The results of the evaluation are shown in Tables 1A and B, wherein “-” means no data.

[2] = tested on: H. influenzae HI-3542; conditions: strain HI-3542; for MIC: Haemophilus influenzae, HI3542, Gram Negative Bacteria, read-out: Minimum Inhibitory Concentrations H. influenzae HI-3542; for Minimum Inhibitory Concentrations H. influenzae HI-3542: Gram Negative Bacteria
Protocol: as §1

[3] = tested on: M. catarrhalis BC-3531; conditions: strain BC-3531; for MIC: Moraxella catarrhalis, BC3531, Gram Negative Bacteria, read-out: Minimum Inhibitory Concentrations M. catarrhalis BC-3531; for Minimum Inhibitory Concentrations M. catarrhalis BC-3531: Gram Negative Bacteria
Protocol: as §1

Row | MIC [1] [µg/mL] | MIC [2] [µg/mL] | MIC [3] [µg/mL] | SMILES | Minimum Inhibitory Concentrations E. coli EC-2549 [1] [µg/mL] | Minimum Inhibitory Concentrations H. influenzae HI-3542 [2] [µg/mL] | Minimum Inhibitory Concentrations M. catarrhalis BC-3531 [3] [µg/mL]
1 | 0.06 (≈ 0.146 µM) | 0.004 (≈ 0.00974 µM) | 0.016 (≈ 0.0389 µM) | O=C(O)c1cn(C2CC2)c2c(Cl)c(N3CCC(C(O)CO)C3)c(F)cc2c1=O (stereo not drawn) [drawing 324] | – | – | –
2 | – | – | – | Cc1c(N2CC(C)(CO)C(C)(CO)C2)c(F)cc2c(=O)c(C(=O)O)cn(C3CC3)c12 (stereo not drawn) [drawing 437] | 0.5 | 0.06 | 0.06
3 | 0.06 (≈ 0.147 µM) | 0.004 (≈ 0.00983 µM) | 0.008 (≈ 0.0197 µM) | O=C(O)c1cn(C2CC2)c2c(Cl)c(N3CC(CO)C4(CC4)C3)c(F)cc2c1=O (stereo not drawn) [drawing 421] | – | – | –
4 | 0.06 (≈ 0.148 µM) | 0.008 (≈ 0.0198 µM) | 0.015 (≈ 0.0371 µM) | COC[C@H]1CN(c2c(F)cc3c(=O)c(C(=O)O)cn(C4CC4)c3c2C)C[C@H]1CO [drawing 387] | – | – | –
5 | 0.25 (≈ 0.501 µM) | 0.008 (≈ 0.016 µM) | 0.125 (≈ 0.251 µM) | Nc1nc(-n2cc(C(=O)O)c(=O)c3cc(F)c(N4CCC(C(O)CO)C4)c(Cl)c32)c(F)cc1F (stereo not drawn) [drawing 326] | – | – | –
6 | 1 (≈ 2.47 µM) | 0.125 (≈ 0.309 µM) | 0.125 (≈ 0.309 µM) | COCC(O)C1CCN(c2c(F)cc3c(=O)c(C(=O)O)cn(C4CC4)c3c2C)C1 (stereo not drawn) [drawing 337] | – | – | –
7 | 0.06 (≈ 0.139 µM) | 0.004 (≈ 0.00928 µM) | 0.008 (≈ 0.0186 µM) | O=C(O)c1cn(C2CC2)c2c(Cl)c(N3CCC(C(O)C(F)F)C3)c(F)cc2c1=O (stereo not drawn) [drawing 312] | – | – | –
8 | 1 (≈ 2.3 µM) | 0.06 (≈ 0.138 µM) | 0.125 (≈ 0.288 µM) | COc1c(N2C[C@@H](CCO)[C@@H](CCO)C2)c(F)cc2c(=O)c(C(=O)O)cn(C3CC3)c12 [drawing 396] | – | – | –
9 | 0.125 (≈ 0.308 µM) | 0.004 (≈ 0.00984 µM) | 0.015 (≈ 0.0369 µM) | COc1c(N2C[C@@H](CO)[C@@H](CO)C2)c(F)cc2c(=O)c(C(=O)O)cn(C3CC3)c12 [drawing 384] | – | – | –
10 | 0.06 (≈ 0.143 µM) | 0.008 (≈ 0.019 µM) | 0.015 (≈ 0.0357 µM) | COc1c(N2CCC(C(CO)CO)C2)c(F)cc2c(=O)c(C(=O)O)cn(C3CC3)c12 (stereo not drawn) [drawing 307] | – | – | –
11 | 0.25 (≈ 0.593 µM) | 0.03 (≈ 0.0712 µM) | 0.125 (≈ 0.297 µM) | COc1c(N2C[C@@H](CO)[C@@H](CO)C2)c(F)c(N)c2c(=O)c(C(=O)O)cn(C3CC3)c12 [drawing 381] | – | – | –
12 | 0.125 (≈ 0.3 µM) | 0.015 (≈ 0.036 µM) | 0.03 (≈ 0.072 µM) | Cc1c(N2CC(C(O)CO)C3(CC3)C2)c(F)cc2c(=O)c(C(=O)O)cn(C3CC3)c12 (stereo not drawn) [drawing 422] | – | – | –
13 | 0.125 (≈ 0.293 µM) | 0.015 (≈ 0.0352 µM) | 0.03 (≈ 0.0704 µM) | COc1c(N2CCC(C(O)C(F)F)C2)c(F)cc2c(=O)c(C(=O)O)cn(C3CC3)c12 (stereo not drawn) [drawing 311] | – | – | –
14 | 0.25 (≈ 0.597 µM) | 0.015 (≈ 0.0358 µM) | 0.06 (≈ 0.143 µM) | COc1c(N2C[C@@H]3C[C@@H](O)[C@@H](O)[C@@H]3C2)c(F)cc2c(=O)c(C(=O)O)cn(C3CC3)c12 | – | – | –
15 | 0.5 (≈ 1.09 µM) | 0.06 (≈ 0.131 µM) | 0.06 (≈ 0.131 µM) | Cc1c(N2CCC(C(O)(CO)C(F)(F)F)C2)c(F)cc2c(=O)c(C(=O)O)cn(C3CC3)c12 (stereo not drawn) [drawing 338] | – | – | –
16 | 1 (≈ 2.31 µM) | 0.25 (≈ 0.578 µM) | 0.125 (≈ 0.289 µM) | COCC(O)C1CN(c2c(F)cc3c(=O)c(C(=O)O)cn(C4CC4)c3c2C)CC1(C)C (stereo not drawn) [drawing 426] | – | – | –
17 | – | – | – | Cc1c(N2CCC(C(C)O)C2)c(F)cc2c(=O)c(C(=O)O)cn(C3CC3)c12 (stereo not drawn) [drawing 317] | 0.06 | 0.004 | 0.008
18 | 0.25 (≈ 0.615 µM) | 0.008 (≈ 0.0197 µM) | 0.06 (≈ 0.148 µM) | COc1c(N2C[C@H](CO)[C@@H](CO)C2)c(F)cc2c(=O)c(C(=O)O)cn(C3CC3)c12 [drawing 385] | – | – | –
19 | 0.5 (≈ 1.16 µM) | 0.015 (≈ 0.0347 µM) | 0.125 (≈ 0.289 µM) | COc1c(N2CCC(C(O)C3(O)CC3)C2)c(F)cc2c(=O)c(C(=O)O)cn(C3CC3)c12 (stereo not drawn) [drawing 328] | – | – | –
20 | 0.25 (≈ 0.578 µM) | 0.06 (≈ 0.139 µM) | 0.03 (≈ 0.0694 µM) | CCCOC[C@@H]1CN(c2c(F)cc3c(=O)c(C(=O)O)cn(C4CC4)c3c2C)C[C@@H]1CO [drawing 391] | – | – | –
21 | 0.125 (≈ 0.311 µM) | 0.008 (≈ 0.0199 µM) | 0.03 (≈ 0.0745 µM) | Cc1c(N2C[C@@H]3C[C@@H](O)[C@@H](O)[C@@H]3C2)c(F)cc2c(=O)c(C(=O)O)cn(C3CC3)c12 [drawing 446] | – | – | –
22 | 0.03 (≈ 0.0738 µM) | 0.015 (≈ 0.0369 µM) | 0.04 (≈ 0.0984 µM) | COc1c(N2CCC(C(O)CO)C2)c(F)cc2c(=O)c(C(=O)O)cn(C3CC3)c12 (stereo not drawn) [drawing 322] | – | – | –
23 | 0.5 (≈ 1.23 µM) | 0.15 (≈ 0.369 µM) | 0.0125 (≈ 0.0308 µM) | COc1c(N2CCC(CO)(CO)C2)c(F)cc2c(=O)c(C(=O)O)cn(C3CC3)c12 [drawing 375] | – | – | –
24 | 0.5 (≈ 1.05 µM) | 0.125 (≈ 0.263 µM) | 0.06 (≈ 0.126 µM) | CC(=O)OC[C@@H]1CN(c2c(F)cc3c(=O)c(C(=O)O)cn(C4CC4)c3c2C)C[C@@H]1COC(C)=O [drawing 392] | – | – | –
25 | 8 (≈ 15.1 µM) | 2 (≈ 3.77 µM) | 2 (≈ 3.77 µM) | Cc1c(N2C[C@@H](COC(=O)C(C)C)[C@@H](COC(=O)C(C)C)C2)c(F)cc2c(=O)c(C(=O)O)cn(C3CC3)c12 [drawing 394] | – | – | –
